Results as given in BindingDB's records for doi:10.1016/0922-4106(94)90227-5 (Novo Nordisk, 1994).

Key:
[1] = biological target: Metabotropic glutamate receptor 4 (Rattus norvegicus, UniProt P31423)
Glutamate receptor 3 = Glutamate receptor 3 (Rattus norvegicus, UniProt P19492)
[2] = biological target: Metabotropic glutamate receptor 2 (Homo sapiens, UniProt Q14416)
[3] = biological target: Glutamate receptor ionotropic, NMDA 1 (Rattus norvegicus, UniProt P35439)
[4] = biological target: Glutamate receptor ionotropic, kainate 1 (Rattus norvegicus, UniProt P22756)
[5] = biological target: Metabotropic glutamate receptor 1 (Rattus norvegicus, UniProt P23385)

Measured: Ki

Chain of Glutamate receptor ionotropic, kainate 1 (P22756 whole entry): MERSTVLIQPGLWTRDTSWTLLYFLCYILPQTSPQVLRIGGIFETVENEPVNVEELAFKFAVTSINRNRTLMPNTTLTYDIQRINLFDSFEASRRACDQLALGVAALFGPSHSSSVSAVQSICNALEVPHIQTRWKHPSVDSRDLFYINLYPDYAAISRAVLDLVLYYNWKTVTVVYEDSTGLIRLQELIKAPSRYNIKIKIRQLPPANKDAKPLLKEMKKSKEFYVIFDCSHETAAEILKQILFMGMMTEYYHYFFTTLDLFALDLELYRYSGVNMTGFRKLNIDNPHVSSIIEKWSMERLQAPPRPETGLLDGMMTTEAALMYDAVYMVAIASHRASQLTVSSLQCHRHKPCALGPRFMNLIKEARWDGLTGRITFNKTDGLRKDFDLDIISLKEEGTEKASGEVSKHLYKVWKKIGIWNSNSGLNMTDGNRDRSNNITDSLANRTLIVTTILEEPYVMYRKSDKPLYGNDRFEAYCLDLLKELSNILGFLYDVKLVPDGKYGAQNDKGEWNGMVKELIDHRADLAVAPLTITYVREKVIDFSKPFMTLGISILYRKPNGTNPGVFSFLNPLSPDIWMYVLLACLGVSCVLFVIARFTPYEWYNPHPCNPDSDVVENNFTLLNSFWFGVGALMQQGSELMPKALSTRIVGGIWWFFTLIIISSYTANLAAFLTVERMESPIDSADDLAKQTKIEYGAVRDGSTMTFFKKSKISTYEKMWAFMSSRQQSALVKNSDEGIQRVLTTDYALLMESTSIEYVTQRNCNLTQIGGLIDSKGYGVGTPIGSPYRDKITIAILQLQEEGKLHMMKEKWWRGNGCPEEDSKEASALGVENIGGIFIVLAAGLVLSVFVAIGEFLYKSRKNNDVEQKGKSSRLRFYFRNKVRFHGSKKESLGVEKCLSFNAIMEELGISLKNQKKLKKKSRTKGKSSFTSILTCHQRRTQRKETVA
Chain of Metabotropic glutamate receptor 4 (P31423 whole entry): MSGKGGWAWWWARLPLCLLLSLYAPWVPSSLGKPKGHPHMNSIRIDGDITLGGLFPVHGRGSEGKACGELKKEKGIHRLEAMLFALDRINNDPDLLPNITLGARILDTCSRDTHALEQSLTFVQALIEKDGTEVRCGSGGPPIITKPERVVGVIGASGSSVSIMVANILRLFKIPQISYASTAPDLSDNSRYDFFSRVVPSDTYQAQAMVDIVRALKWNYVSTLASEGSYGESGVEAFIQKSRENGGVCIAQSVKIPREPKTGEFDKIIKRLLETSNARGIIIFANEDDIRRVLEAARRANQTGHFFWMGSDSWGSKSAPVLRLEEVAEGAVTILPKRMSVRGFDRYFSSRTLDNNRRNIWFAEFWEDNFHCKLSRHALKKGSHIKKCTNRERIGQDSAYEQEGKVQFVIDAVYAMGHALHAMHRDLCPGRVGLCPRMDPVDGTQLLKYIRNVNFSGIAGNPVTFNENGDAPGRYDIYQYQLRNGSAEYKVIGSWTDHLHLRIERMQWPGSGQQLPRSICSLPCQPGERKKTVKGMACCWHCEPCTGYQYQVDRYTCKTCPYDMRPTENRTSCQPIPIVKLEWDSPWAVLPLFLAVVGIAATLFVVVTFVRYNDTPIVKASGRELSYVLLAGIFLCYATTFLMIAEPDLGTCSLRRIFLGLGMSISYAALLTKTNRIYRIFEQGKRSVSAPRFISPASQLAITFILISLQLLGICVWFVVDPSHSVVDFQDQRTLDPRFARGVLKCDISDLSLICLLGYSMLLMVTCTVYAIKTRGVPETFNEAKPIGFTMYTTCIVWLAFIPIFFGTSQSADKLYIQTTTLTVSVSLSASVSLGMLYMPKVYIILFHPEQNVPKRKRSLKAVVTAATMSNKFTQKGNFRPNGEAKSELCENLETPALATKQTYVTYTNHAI
Chain of Metabotropic glutamate receptor 1 (P23385 whole entry): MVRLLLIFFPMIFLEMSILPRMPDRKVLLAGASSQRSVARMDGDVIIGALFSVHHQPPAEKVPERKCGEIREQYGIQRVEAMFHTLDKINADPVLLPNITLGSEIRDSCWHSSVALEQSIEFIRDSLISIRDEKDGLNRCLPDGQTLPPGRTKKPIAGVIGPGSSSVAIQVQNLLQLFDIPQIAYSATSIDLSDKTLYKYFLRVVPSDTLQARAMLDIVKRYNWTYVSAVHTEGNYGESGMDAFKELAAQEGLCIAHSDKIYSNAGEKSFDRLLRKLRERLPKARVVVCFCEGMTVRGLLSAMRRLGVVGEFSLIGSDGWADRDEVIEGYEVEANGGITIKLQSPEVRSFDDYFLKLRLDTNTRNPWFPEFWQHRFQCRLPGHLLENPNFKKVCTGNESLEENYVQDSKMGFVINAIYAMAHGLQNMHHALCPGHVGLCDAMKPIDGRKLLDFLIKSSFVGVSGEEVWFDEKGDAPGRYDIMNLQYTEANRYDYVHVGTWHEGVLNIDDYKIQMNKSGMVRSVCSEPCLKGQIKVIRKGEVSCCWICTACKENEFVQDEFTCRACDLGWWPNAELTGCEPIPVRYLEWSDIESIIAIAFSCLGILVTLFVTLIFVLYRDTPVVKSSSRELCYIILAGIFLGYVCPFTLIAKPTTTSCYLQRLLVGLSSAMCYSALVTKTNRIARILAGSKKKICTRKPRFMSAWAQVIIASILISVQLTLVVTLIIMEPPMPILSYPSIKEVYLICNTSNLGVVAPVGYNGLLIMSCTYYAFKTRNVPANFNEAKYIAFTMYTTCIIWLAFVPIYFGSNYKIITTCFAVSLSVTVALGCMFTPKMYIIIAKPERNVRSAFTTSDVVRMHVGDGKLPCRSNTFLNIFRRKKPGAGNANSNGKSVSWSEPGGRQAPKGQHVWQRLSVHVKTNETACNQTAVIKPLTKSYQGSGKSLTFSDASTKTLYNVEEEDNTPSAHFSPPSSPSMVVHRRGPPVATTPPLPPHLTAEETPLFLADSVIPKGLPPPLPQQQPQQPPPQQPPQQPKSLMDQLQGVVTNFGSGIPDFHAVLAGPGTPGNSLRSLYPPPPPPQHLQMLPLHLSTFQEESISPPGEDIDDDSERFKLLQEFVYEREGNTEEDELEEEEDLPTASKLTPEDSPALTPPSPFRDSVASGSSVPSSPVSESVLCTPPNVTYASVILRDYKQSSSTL
Chain of Glutamate receptor 3 (P19492 whole entry): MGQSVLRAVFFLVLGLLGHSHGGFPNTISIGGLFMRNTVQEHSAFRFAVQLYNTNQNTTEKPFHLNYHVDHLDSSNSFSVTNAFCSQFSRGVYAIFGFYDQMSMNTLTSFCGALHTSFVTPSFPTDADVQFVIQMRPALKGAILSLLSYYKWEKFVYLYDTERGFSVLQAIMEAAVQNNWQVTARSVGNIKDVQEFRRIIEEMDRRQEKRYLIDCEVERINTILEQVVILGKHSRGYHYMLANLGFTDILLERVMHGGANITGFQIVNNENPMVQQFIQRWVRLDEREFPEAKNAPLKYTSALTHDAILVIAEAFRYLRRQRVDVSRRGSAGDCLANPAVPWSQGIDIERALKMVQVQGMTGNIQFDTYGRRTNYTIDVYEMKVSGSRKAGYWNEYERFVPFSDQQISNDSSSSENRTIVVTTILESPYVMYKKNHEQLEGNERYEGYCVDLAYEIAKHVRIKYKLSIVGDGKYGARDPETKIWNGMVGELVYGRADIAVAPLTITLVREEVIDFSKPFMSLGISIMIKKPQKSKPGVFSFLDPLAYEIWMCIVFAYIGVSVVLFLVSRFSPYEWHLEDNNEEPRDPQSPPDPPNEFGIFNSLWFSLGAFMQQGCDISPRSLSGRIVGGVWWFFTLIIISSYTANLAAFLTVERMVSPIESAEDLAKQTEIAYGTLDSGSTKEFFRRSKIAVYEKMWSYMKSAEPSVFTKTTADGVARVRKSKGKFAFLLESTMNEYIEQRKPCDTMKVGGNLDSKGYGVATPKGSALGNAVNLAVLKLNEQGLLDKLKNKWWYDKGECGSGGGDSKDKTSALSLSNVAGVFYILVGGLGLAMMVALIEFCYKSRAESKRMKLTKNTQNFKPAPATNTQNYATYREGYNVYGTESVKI
Chain of Metabotropic glutamate receptor 2 (Q14416 whole entry): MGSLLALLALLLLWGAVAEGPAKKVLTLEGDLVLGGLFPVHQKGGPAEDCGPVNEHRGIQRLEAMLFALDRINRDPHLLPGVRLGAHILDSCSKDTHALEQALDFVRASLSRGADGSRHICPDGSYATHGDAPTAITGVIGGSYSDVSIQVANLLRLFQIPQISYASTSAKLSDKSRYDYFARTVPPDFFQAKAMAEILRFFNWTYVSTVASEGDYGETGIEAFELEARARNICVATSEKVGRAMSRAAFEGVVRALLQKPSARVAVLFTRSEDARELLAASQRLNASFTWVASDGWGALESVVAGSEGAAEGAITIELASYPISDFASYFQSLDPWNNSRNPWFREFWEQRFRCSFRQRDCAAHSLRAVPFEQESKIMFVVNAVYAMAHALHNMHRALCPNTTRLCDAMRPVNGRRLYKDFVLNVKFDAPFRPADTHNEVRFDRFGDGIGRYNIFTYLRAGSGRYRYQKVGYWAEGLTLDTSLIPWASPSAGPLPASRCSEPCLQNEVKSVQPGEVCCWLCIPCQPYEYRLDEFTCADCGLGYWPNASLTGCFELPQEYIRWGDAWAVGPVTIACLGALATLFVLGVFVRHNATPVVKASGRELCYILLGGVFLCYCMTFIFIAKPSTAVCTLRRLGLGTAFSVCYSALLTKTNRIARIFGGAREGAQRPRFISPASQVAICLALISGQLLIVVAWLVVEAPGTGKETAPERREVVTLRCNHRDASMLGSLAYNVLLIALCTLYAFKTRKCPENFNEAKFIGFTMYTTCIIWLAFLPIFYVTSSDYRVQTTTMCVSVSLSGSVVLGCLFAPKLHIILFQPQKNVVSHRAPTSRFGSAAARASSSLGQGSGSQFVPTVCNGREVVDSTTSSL

N[C@H](C(=O)O)c1cccc(O)c1 [(S)-3-Hydroxyphenylglycine]
> 10 µM: [1] | Glutamate receptor 3 | [2] | [3] | [4] | [5]

N[C@@H](C(=O)O)c1ccc(C(=O)O)cc1 [(S)-4CPG]
> 10 µM: [1] | Glutamate receptor 3 | [2] | [3] | [4] | [5]

N[C@H](C(=O)O)c1ccc(C(=O)O)cc1 [4-((S)-Amino-carboxy-methyl)-benzoic acid]
> 10 µM: [1] | Glutamate receptor 3 | [2] | [3] | [4] | [5]

C[C@@](N)(C(=O)O)c1ccc(C(=O)O)cc1 (racemic)
> 10 µM: [1] | Glutamate receptor 3 | [2] | [3] | [4] | [5]

N[C@H](C(=O)O)c1ccc(O)c(C(=O)O)c1 [3C4HPG]
> 10 µM: [1] | Glutamate receptor 3 | [2] | [3] | [4] | [5]

N[C@@H](C(=O)O)c1cccc(O)c1 [(R)-3-Hydroxyphenylglyci]
> 10 µM: [1] | Glutamate receptor 3 | [2] | [3] | [4] | [5]

NC(C(=O)O)c1ccc(C(=O)O)cc1 (centres undefined) [4-(Amino-carboxy-methyl)-benzoic acid]
> 10 µM: [1] | [2] | [5]

N[C@@H](C(=O)O)c1ccc(O)c(C(=O)O)c1 [CB7394016]
> 10 µM: [1] | [2] | [3] | [4] | [5]
